# Measurements as given in patent EP1268545B1, “POTASSIUM CHANNEL PROTEIN KCNQ5, A TARGET FOR DISEASES OF CENTRAL NERVOUS SYSTEM AND CARDIOVASCULAR SYSTEM” (priority 2000, dated 2001).
# Key:
# [1] = test system: human KCNQ5 (hKCNQ5) potassium channel, SEQ ID No 2; test: Two-electrode voltage-clamp of KCNQ5 currents in Xenopus oocytes injected with cRNA; format: cell-based; settings: 3s depolarizing step from -100 mV to 0 mV
# Experimental: Xenopus laevis oocytes were obtained from tricaine anaesthetized animals. Ovaries were collagenase treated (1 mg/ 1 ml, Worthington, type II) in OR 2 solution (NaCl 82.5 mM, KCl 2 mM, MgCl2 1 mM, HEPES 5 mM, pH 7.4) for 120 min and subsequently stored in recording solution ND-96 (NaCl 96 mM, KCI 2 mM, CaCl2 1.8 mM, MgCl2 1 mM, HEPES 5 mM, pH 7.4) with additional NaPyruvate (275 mg/l), Theophylline (90 mg/l) and Gentamycin (50 mg/l) at 18°C. […] Standard two-electrode voltage-clamp recordings were performed at room temperature with a Turbo Tec 10CD (NPI) amplifier, an ITC-16 interface combined with Pulse software (HEKA) and Origin for data aquisition on Pentium 11 PC. Macroscopic currents were recorded 2-4 days after injection. All fitting procedures were based on the simplex algorithm. Student's t test was used to test for statistical significance, which was assumed if P<0.05 and indicated by *.
# However, it can be described by a biexponential function. […] KCNQ5 deactivation was well fitted to a second order exponential function. The two components of deactivation were determined at a repolarizing voltage of -100 mV following a 3s depolarizing step to +40 mV.
# [2] = test system: KCNQ1; settings: cited from earlier work
# [3] = test system: KCNQ3; settings: at 10µM; cited from earlier work
# [4] = test system: KCNQ2; settings: at 10µM; cited from earlier work
compound,measurement,setting,value
CCCCCCC[N+](CC)(CC)CCCCc1ccc(Cl)cc1 [Clofilium],reduction of KCNQ5 current,[1]; at 30 µM,40%
same,IC50,[2]; read-out: IC50 (block of KCNQ1),< 10 µM
same,inhibition of KCNQ3,[3],30%
same,inhibition of KCNQ2,[4],little inhibition
CCS(=O)(=O)N(C)[C@H]1c2cc(C#N)ccc2OC(C)(C)[C@@H]1O (racemic) [chromanol 293B],block of KCNQ5 currents,[1]; at 100 µM,45%
same,block of KCNQ1,[2]; at 100 µM,80%
